Measured values as given in PubChem BioAssay (NCI).
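In this assay, cells in 96-well plates receive the compound at five concentrations for 48 hours. Endpoints are linearly interpolated between the surrounding concentrations. GI50 marks 50% less growth. TGI denotes the concentration required for complete inhibition of growth.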

Key:
Assay in all cases: DTP human tumour cell line panel, 48 h
M14 melanoma = tested on: M14 melanoma
SNB-19 CNS = tested on: SNB-19 CNS
SF-268 CNS = tested on: SF-268 CNS
HOP-92 NSCLC = tested on: HOP-92 NSCLC
MCF7 breast = tested on: MCF7 breast
CCRF-CEM leukemia = tested on: CCRF-CEM leukemia
LOX IMVI melanoma = tested on: LOX IMVI melanoma
NCI-H522 lung = tested on: NCI-H522 lung
MDA-MB-435 = tested on: MDA-MB-435
HCT-15 colon = tested on: HCT-15 colon

Row | Compound | GI50 (M14 melanoma) [µM] | TGI (M14 melanoma) [µM] | GI50 (SNB-19 CNS) [µM] | TGI (SNB-19 CNS) [µM] | GI50 (SF-268 CNS) [µM] | TGI (SF-268 CNS) [µM] | GI50 (HOP-92 NSCLC) [µM] | TGI (HOP-92 NSCLC) [µM] | GI50 (MCF7 breast) [µM] | TGI (MCF7 breast) [µM] | GI50 (CCRF-CEM leukemia) [µM] | TGI (CCRF-CEM leukemia) [µM] | GI50 (LOX IMVI melanoma) [µM] | TGI (LOX IMVI melanoma) [µM] | GI50 (NCI-H522 lung) [µM] | TGI (NCI-H522 lung) [µM] | GI50 (MDA-MB-435) [µM] | TGI (MDA-MB-435) [µM] | GI50 (HCT-15 colon) [µM] | TGI (HCT-15 colon) [µM]
1 | CCN1CCN(C(c2ccc(C(F)(F)F)cc2)c2ccc3cccnc3c2O)CC1 (centres undefined) | 1.7 | 5.87 | 1.51 | 19.8 | 1.36 | 12.8 | 3.62 | 25.3 | 3.46 | 14.9 | 1.45 | 7.85 | 1.71 | 10.5 | 5.01 | 18 | 3.76 | 17.8 | 3.74 | 17.6
2 | COc1ccc(CN2C(=O)/C(=C\C(=O)c3ccc(OCCN4CCCCC4)cc3)c3ccccc32)cc1 | 1.83 | 3.85 | 4.63 | 17.1 | 4.03 | 19.5 | 1.64 | 3.89 | 1.85 | 4.6 | 3.01 | 14 | 1.65 | 3.04 | 1.97 | 3.78 | 3.12 | 12.3 | 1.67 | 3.37
3 | Cc1cc(I)cc(CN(C)CCCN2CCCCCCC2)c1O | 15.5 | 33.2 | 20.4 | 44.5 | 14.9 | 31.3 | 11.6 | 29.8 | 14.2 | 30.6 | 6.22 | 21.9 | 16.2 | 30.9 | 19.3 | 38.4 | 13.2 | 30.1 | 10.9 | 23.3
4 | CCC(C)n1ncn(-c2ccc(N3CCN(c4ccc(OCC5COC(Cn6cncn6)(c6ccc(Cl)cc6Cl)O5)cc4)CC3)cc2)c1=O (centres undefined) | 5.91 | > 100 | 38.9 | > 100 | 33.6 | > 100 | 0.335 | 24.5 | 22.2 | > 100 | > 100 | > 100 | 9.41 | > 100 | 15.4 | 60.8 | > 100 | > 100 | 15.3 | > 100
5 | O=C1NC(=O)C(c2cnc3ccccn23)=C1c1cn2c3c(cc(F)cc13)CN(C(=O)N1CCCCC1)CC2 | 13.7 | 36.6 | 22.8 | > 87.5 | 13.4 | 39.4 | 14.8 | 38.1 | < 0.01 | 21.1 | 2.69 | 49.3 |  | 15.8 | 13.9 | 40.1 | 14.6 | 40.3 | 13.3 | 66.9
6 | COc1cc(C2CC(c3cccc(Br)c3)=NN2C(C)=O)cc(OC)c1OC (centres undefined) | 0.555 | 50.2 | 0.514 | > 100 | 0.785 | 83.3 | 17 | 83.8 | 0.208 | 27.1 | 0.264 | 4.5 | 0.719 | 57.3 | 0.286 | 4.47 | 0.0514 | 0.297 | 0.328 | 29.5
7 | CC(C)CCN1c2nc(Nc3cc(F)c(O)c(F)c3)ncc2N(C)C(=O)C1C (centres undefined) | 4.59 | 26.1 | 6.35 | > 100 | 5.81 | 56.8 | 0.591 | 14.9 | 2.85 | 18.1 | 1.52 | 23.6 | 4.11 | 20.8 | 2.52 | 22.4 | 1.29 | 55.8 | 3.5 | > 49.1
8 | CS(=O)(=O)Nc1ccc2c(c1)oc(=O)c1ccccc12 |  | > 100 |  | > 100 |  | > 100 |  | > 100 |  | > 100 |  | > 100 |  | > 100 |  | > 100 |  | > 100 |  | > 100
9 | C=C1CC[C@@H]2[C@](C)(COC(C)=O)[C@H](OC(C)=O)CC[C@@]2(C)[C@@H]1CC(Sc1ccccc1)C1=CCOC1=O (some centres undefined) | 1.47 | 3.69 | 1.78 | 3.77 | 1.71 | 3.55 | 2.71 | 8.71 | 0.538 | 2.35 | 0.266 | 1.19 | 0.297 | 1.19 | 1.35 | 2.98 | 1.41 | 3.58 | 0.877 | 2.59
10 | Clc1nc2ccccc2nc1CI | 3.32 | 12.6 | 16.2 | 37.4 | 5.23 | 17.9 | 1.81 | 6.82 | 2.79 | 11.9 | 0.93 | 4.99 | 1.03 | 3.34 | 1.77 | 3.58 | 2.35 | 6.61 | 2.41 | 6.46
11 | O=C(Cc1ccc(/C=C/C(=O)c2ncc[nH]2)cc1)Nc1cc(F)c(F)c(F)c1 | 4.06 | 8.36 | 4.07 | 9.93 | 5.26 | 20.1 | 3.53 | 8 | 2.38 | 7.76 | 2.79 | 13.9 | 1.56 | 4.81 | 3.46 | 8.01 | 4.25 | 12.8 | 2.39 | 8.25
12 | COc1ccc(-n2cc(-c3cc(OC)c(OC)c(OC)c3)c(C(=O)C(F)(F)F)c2C)cc1 | > 100 | > 100 | > 100 | > 100 | 99.5 | > 100 | 2.39 | 21.5 | 14.2 | > 100 | 16.1 | > 100 | 47.4 | > 100 | 20 | > 100 | 43.3 | > 100 | 59.4 | > 100
13 | CCCCCCCCCCCCOC1C(C(COC2OC(C3COC(C)(C)O3)C3OC(C)(C)OC23)NC(=O)Nc2ccc(C(=O)O)cc2)OC2OC(C)(C)OC21 (centres undefined) | 2.45 | 6.71 | 4.41 | 14.6 | 3.37 | 13.7 | 2.55 | 8.04 | 2.84 | 10.8 | 0.306 | 0.577 | 3.23 | 10.3 | 2.56 | 6.93 | 2.63 | 7.91 | 2.63 | 6.7
